Laboratory results reported in patent US20090306133A1, “New Acetyl Coenzyme A Carboxylase (ACC) Inhibitors And Uses In Treatments Of Obesity And Diabetes Mellitus - 087” (ASTRAZENECA AB, priority 2007, published 2009).

How the values were obtained:
Assay type in all cases: biochemical
[1] = target: T1, Human recombinant Acetyl-CoA Carboxylase 1 (ACC1) (Homo sapiens, UniProt Q13085); assay: Assay X: ACC1 inhibition, inorganic phosphate (malachite green); details: Assay X: 37° C., 1.5 h, 5 min pre-incubation
Method: (§1) Human recombinant Acetyl-CoA Carboxylase 1 and Acetyl-CoA Carboxylase 2 (ACC1 and ACC2) were assayed by determining the amount of inorganic phosphate (Pi) generated. Pre-incubation of 15 μL enzyme together with 0.75 μL DMSO+/−compound for 5 min was done before the reaction was initiated by the addition of 10 μL substrate. […] After 1.5 h the reaction was stopped by addition of 74 μL of water followed by extensive mixing, split and transfer of 2×40 μL to a read-plate encompassing 30 μL distilled H2O per well (n=2→n=4). Colour reaction was initiated by addition of 30 μL malachite green reagent per well and allowed 15 min before absorbance reading of the plates at 660 nm. The malachite green reagent was prepared by mixing 16.4 mL ammonium molybdate solution (7.5%), 1.64 mL Tween (11%) with 82 mL Malachite Green/H2SO4-solution (0.7 g Malachite Green to 1000 mL of 10% (v/v) H2SO4).
(§2) All compounds were tested in triplicate at 10 different concentrations. Control compound (0, 50 and 100% effect) was included on each plate. […] Curve fitting was done using the following equation: y=(A+((B−A)/(1+((x/C)̂D)))) where A and B represents the curve bottom (% inhibition) and the total amplitude (% inhibition), respectively, whereas C and D are the apparent IC50 and curve slope, respectively.

[2] = target: T2, Human recombinant Acetyl-CoA Carboxylase 2 (ACC2) (Homo sapiens, UniProt O00763); assay: Assay X: ACC2 inhibition, inorganic phosphate (malachite green); details: Assay X: 37° C., 1.5 h, 5 min pre-incubation
T2 sequence (O00763 whole entry): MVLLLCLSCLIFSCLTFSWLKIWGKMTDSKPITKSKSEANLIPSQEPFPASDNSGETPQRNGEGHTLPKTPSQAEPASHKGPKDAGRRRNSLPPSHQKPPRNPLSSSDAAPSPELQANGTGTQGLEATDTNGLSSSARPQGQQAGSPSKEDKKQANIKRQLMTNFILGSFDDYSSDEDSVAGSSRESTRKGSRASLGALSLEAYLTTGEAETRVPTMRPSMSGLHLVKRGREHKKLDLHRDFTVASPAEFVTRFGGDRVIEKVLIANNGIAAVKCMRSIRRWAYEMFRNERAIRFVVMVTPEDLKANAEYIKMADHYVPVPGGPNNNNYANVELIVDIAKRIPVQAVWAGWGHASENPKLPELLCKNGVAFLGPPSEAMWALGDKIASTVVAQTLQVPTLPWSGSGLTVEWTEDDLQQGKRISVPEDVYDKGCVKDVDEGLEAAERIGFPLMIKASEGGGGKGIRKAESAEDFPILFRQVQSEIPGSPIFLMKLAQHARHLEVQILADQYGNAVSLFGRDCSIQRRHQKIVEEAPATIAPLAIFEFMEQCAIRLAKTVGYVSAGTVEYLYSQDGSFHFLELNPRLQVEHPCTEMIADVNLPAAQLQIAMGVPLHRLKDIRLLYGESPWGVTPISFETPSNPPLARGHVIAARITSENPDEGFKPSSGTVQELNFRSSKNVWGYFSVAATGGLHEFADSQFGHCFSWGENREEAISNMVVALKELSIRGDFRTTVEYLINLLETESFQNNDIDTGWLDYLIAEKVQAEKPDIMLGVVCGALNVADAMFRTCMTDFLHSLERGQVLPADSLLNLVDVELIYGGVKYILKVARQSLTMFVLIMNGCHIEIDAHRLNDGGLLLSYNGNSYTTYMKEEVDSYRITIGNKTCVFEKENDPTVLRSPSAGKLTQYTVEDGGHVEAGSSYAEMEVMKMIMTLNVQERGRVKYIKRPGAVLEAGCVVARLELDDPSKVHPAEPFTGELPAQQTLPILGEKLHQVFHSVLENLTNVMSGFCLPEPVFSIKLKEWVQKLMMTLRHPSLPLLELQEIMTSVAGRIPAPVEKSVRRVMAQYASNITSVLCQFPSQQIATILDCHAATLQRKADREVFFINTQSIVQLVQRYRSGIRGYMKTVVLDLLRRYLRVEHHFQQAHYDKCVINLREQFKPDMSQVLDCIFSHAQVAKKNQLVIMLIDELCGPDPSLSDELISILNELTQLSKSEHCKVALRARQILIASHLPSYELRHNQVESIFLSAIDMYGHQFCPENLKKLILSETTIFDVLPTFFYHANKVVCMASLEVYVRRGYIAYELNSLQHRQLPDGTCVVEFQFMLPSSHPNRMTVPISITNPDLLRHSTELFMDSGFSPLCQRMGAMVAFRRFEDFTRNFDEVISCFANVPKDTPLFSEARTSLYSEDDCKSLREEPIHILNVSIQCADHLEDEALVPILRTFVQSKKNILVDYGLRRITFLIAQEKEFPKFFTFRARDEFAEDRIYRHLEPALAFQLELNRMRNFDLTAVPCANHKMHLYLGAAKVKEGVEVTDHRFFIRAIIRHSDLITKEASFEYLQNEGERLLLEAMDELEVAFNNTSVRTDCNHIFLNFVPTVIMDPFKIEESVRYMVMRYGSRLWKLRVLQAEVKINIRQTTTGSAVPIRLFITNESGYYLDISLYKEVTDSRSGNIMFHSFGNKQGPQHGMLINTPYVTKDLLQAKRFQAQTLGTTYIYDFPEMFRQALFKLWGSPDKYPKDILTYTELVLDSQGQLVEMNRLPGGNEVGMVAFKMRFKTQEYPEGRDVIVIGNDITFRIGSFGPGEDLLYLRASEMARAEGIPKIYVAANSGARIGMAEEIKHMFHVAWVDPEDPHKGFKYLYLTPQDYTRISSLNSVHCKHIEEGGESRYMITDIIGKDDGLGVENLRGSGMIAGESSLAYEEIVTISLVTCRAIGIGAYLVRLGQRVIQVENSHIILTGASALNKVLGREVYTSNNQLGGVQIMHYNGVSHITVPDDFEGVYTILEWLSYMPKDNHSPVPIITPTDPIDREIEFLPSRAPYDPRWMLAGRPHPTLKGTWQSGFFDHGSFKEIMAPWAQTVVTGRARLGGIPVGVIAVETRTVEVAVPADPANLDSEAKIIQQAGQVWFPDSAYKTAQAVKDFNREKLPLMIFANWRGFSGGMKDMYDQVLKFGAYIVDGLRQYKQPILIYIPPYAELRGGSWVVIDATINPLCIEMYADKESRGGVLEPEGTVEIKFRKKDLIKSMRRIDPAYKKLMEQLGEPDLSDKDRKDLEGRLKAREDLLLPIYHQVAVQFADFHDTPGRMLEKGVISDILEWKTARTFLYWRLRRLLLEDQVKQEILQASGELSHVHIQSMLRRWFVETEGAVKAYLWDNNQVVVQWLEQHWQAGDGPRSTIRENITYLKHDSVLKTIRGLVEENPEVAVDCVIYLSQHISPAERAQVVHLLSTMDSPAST
Method: as §1, §2

[3] = target: T1, Human recombinant Acetyl-CoA Carboxylase 1 (ACC1); assay: Assay Y: ACC1 inhibition, inorganic phosphate (Malachite Green); details: Assay Y: room temperature, 3 hr, 15 min preincubation
How it was run: (§3)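 Enzyme preincubated with compound 15 min before substrate addition; reaction run 3 h, then phosphate detected with Malachite Green at 670 nm after 10 min at room temperature. Triplicate 10-point titrations; IC50 by non-linear four-parameter curve fitting.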

[4] = target: T2, Human recombinant Acetyl-CoA Carboxylase 2 (ACC2); assay: Assay Y: ACC2 inhibition, inorganic phosphate (Malachite Green); details: Assay Y: room temperature, 3 hr, 15 min preincubation
How it was run: as §3

Row | IC50 [1] [µM] | IC50 [2] [µM] | IC50 [3] [µM] | IC50 [4] [µM] | Structure (SMILES)
1 | 0.41 | 0.18 |  |  | CC(C)(C)OC(=O)NC[C@H]1CC[C@H](CNC(=O)c2cc(-c3ccc(N4CCCC(O)C4)nc3)nc3ccccc23)CC1 (relative stereo) [Example 157, tert-Butyl[(trans-4-{[({2-[6-(3-hydroxypiperidin-1-yl)pyridin-3-yl]-quinolin-4-yl}carbonyl)amino]methyl}cyclohexyl)methyl]carbamate]
2 | 7.3 | 0.5 |  |  | CC(C)(C)OC(=O)NC[C@H]1CC[C@H](CNC(=O)c2cc(-c3ccc(OC4CCOCC4)nc3)nc3ccccc23)CC1 [Example 175, tert-Butyl[(trans-4-{[({2-[6-(tetrahydro-2H-pyran-4-yloxy)-pyridin-3-yl]-quinolin-4-yl}-carbonyl)amino]-methyl}cyclohexyl)methyl]carbamate]
3 | 4.31 | 1.71 |  |  | CC(C)(C)OC(=O)NC[C@H]1CC[C@H](CNC(=O)c2cc(-c3ccc(OCN4CCCC4=O)nc3)nc3ccccc23)CC1 [Example 177, tert-Butyl{[trans-4-({[(2-{6-[(2-oxopyrrolidin-1-yl)methoxy]pyridin-3-yl}quinolin-4-yl)carbonyl]amino}-methyl)cyclohexyl]-methyl}carbamate]
4 | 0.55 | 0.08 |  |  | CC(C)(C)OC(=O)NC[C@H]1CC[C@H](CNC(=O)c2cc(N3CCC(CCN4CC(N)C4)CC3)nc3ccccc23)CC1 [Example 236, tert-Butyl {[trans-4-({[(2-{4-[2-(3-aminoazetidin-1-yl)ethyl]piperidin-1-yl}quinolin-4-yl)carbonyl]amino}methyl)cyclohexyl]methyl}carbamate]
5 | 1.63 | 0.2 |  |  | COCCNCCC1CCN(c2cc(C(=O)NC[C@H]3CC[C@H](CNC(=O)OC(C)(C)C)CC3)c3ccccc3n2)CC1 [Example 226, tert-Butyl ({trans-4-[({[2-(4-{2-[(2-methoxyethyl)amino]ethyl}piperidin-1-yl)quinolin-4-yl]carbonyl}amino)methyl]cyclohexyl}methyl)carbamate]
6 | > 20 | 1.61 |  |  | CC(C)(C)OC(=O)NC[C@H]1CC[C@H](CNC(=O)c2cc(N3CCC(OCc4ccc(F)cc4)CC3)nc3ccccc23)CC1 [Example 221, tert-Butyl {[trans-4-({[(2-{4-[(4-fluorobenzyl)oxy]piperidin-1-yl}quinolin-4-yl)carbonyl]amino}methyl)cyclohexyl]methyl}carbamate]
7 | 1.1 | 0.41 |  |  | CC(C)(C)OC(=O)NC[C@H]1CC[C@H](CNC(=O)c2cc(-c3ccc(NCCOCCO)nc3)nc3ccccc23)CC1 [Example 155, tert-Butyl({trans-4-[({[2-(6-{[2-(2-hydroxyethoxy)ethyl]amino}pyridin-3-yl)quinolin-4-yl]-carbonyl}amino)-methyl]cyclohexyl}methyl)carbamate]
8 | 3.04 | 1.05 |  |  | CC(O)C(C)Oc1ccc(-c2cc(C(=O)NC[C@H]3CC[C@H](CNC(=O)OC(C)(C)C)CC3)c3ccccc3n2)cn1 (relative stereo) [Example 176, tert-Butyl[(trans-4-{[({2-[6-(2-hydroxy-1-methylpropoxy)-pyridin-3-yl]-quinolin-4-yl}-carbonyl)amino]-methyl}cyclohexyl)methyl]carbamate]
9 | 4.7 | 0.73 |  |  | CN(C)CCNC(=O)C1CN(c2cc(C(=O)NC[C@H]3CC[C@H](CNC(=O)OC(C)(C)C)CC3)c3ccccc3n2)C1 [Example 217, tert-Butyl ({trans-4-[({[2-(3-{[2-(dimethylamino)ethyl]carbamoyl}azetidin-1-yl)quinolin-4-yl]carbonyl}amino)methyl]cyclohexyl}methyl)carbamate]
10 | 0.81 | 0.35 |  |  | COCCNc1ccc(-c2cc(C(=O)NC[C@H]3CC[C@H](CNC(=O)OC(C)(C)C)CC3)c3ccccc3n2)cn1 [Example 156, tert-Butyl{[trans-4-({[(2-{6-[(2-methoxyethyl)amino]pyridin-3-yl}quinolin-4-yl)carbonyl]amino}methyl)cyclohexyl]methyl}carbamate]
11 | 9.1 | 3.4 |  |  | CC(C)(C)OC(=O)NC[C@H]1CC[C@H](CNC(=O)c2c(N)sc3ccccc23)CC1 [Example 222, tert-Butyl {[trans-4-({[(2-amino-1-benzothiophen-3-yl)carbonyl]amino}methyl)-cyclohexyl]methyl}carbamate]
12 | 5.25 | 1.59 |  |  | CN1CCN(c2ccc(-c3cc(C(=O)NC[C@H]4CC[C@H](CNC(=O)OCc5cnccn5)CC4)c4ccccc4n3)cn2)CC1 [Example 131, Pyrazin-2-ylmethyl-[(trans-4-{[({2-[6-(4-methylpiperazin-1-yl)pyridin-3-yl]quinolin-4-yl}carbonyl)amino]methyl}cyclohexyl)methyl]carbamate]
13 |  | 0.41 |  |  | CC(C)(C)OC(=O)NC[C@H]1CC[C@H](CNC(=O)c2cc(-c3ccc(OCC4CCOC4)nc3)nc3ccccc23)CC1 (stereo partly drawn) [Example 173, tert-Butyl [(trans-4-{[({2-[6-(tetrahydrofuran-3-ylmethoxy)pyridin-3-yl]quinolin-4-yl}carbonyl)amino]methyl}cyclohexyl)methyl]carbamate]
14 |  |  | 8.48 | 0.56 | CC(C)(C)OC(=O)NC[C@H]1CC[C@H](CNC(=O)c2cc(N3CCC(O)CC3)nc3ccccc23)CC1 [Example 187, tert-Butyl({trans-4-[({[2-(4-hydroxypiperidin-1-yl)quinolin-4-yl]carbonyl}amino)-methyl]cyclohexyl}-methyl)carbamate]
15 |  |  | 1.37 | 0.07 | CC(C)(C)OC(=O)NC[C@H]1CC[C@H](CNC(=O)c2cc(-c3cccc(CNS(C)(=O)=O)c3)nc3ccccc23)CC1 [Example 98, tert-Butyl ({trans-4-[({[2-(3-{[(methylsulfonyl)amino]methyl}phenyl)quinolin-4-yl]carbonyl}amino)methyl]cyclohexyl}methyl)carbamate]
16 |  |  | 3.59 | 1.18 | CCOC(=O)NC[C@H]1CC[C@H](CNC(=O)c2cc(-c3cccc(OC)c3)nc3ccccc23)CC1 [Example 27, Ethyl ({trans-4-[({[2-(3-methoxyphenyl)quinolin-4-yl]carbonyl}amino)methyl]cyclo-hexyl}methyl)carbamate]
17 |  |  | 7.8 | 0.94 | COC[C@@H](C)OC(=O)NC[C@H]1CC[C@H](CNC(=O)c2cc(-c3ccc(N4CCN(C)CC4)nc3)nc3ccccc23)CC1 (stereo in doubt) [Example 113, (1R)-2-Methoxy-1-methylethyl[(trans-4-{[({2-[6-(4-methylpiperazin-1-yl)pyridin-3-yl]quinolin-4-yl}carbonyl)amino]methyl}cyclohexyl)methyl]carbamate]

Row | Structure (SMILES) | IC50 [1] [µM] | IC50 [2] [µM] | IC50 [3] [µM] | IC50 [4] [µM]
18 | CCOC(=O)CN(C[C@H]1CC[C@H](CNC(=O)OC(C)(C)C)CC1)S(=O)(=O)c1ccc2ccccc2c1 [Example 81, Ethyl N-[(trans-4-{[(tert-butoxycarbonyl)amino]methyl}cyclohexyl)methyl]-N-(2-naphthylsulfonyl)glycinate] |  |  | > 20 | 3.03
19 | COC(=O)NCc1cccc(-c2cc(C(=O)NC[C@H]3CC[C@H](CNC(=O)OC(C)(C)C)CC3)c3ccccc3n2)c1 [Example 101, Methyl [3-(4-{[(trans-4-{[(tert-butoxycarbonyl)amino]methyl}cyclohexyl)methyl]-carbamoyl}quinolin-2-yl)benzyl]carbamate] |  |  | 2.21 | 0.15
